# System: kinetic aqueous solubility, PBS pH 7.4, LC-UV/MS
# Experiment: Identifying a Potential Treatment of Ataxia-Telangiectasia: Solubility Profiling
# Conditions: stronger effect = higher value
# Text: Ataxia-telangiectasia (A-T) is a devastating and progressive disease for which, there is no cure. Although A-T is a multisystem disease, it is stereotyped characterized by its neurological symptoms such as truncal ataxia, due to cerebellar cortical degeneration of the Purkinje and granule cells. The underlying genetic cause of A-T is null mutations in the ATM (A-T mutated) gene. ATM is a nuclear serine/threonine kinase that functions as a master regulator of the cellular responses to double strand breaks (DSBs) in the DNA. Upon activation by DSBs, ATM phosphorylates a plethora of downstream targets, including KAP-1 on […]. KAP-1 phosphorylation occurs shortly in response to DSBs and mediates global chromatin relaxation, which facilitates DSB repair. The assay provider and the NCGC have developed assays to discover small molecules that compensate for the loss of ATM and have discovered a probe. The resulting probe is further characterized in several ADME assays. This bioassay provides profiling data on aqueous kinetic solubility (PBS @ pH 7.4) of one of the lead compounds developed in the ATM project. NIH Chemical Genomics Center [NCGC] NIH Molecular Libraries Probe Centers Network [MLPCN] MLPCN Grant: MH089030-01 Assay Submitter (PI): Wei Zheng and Yosef Shiloh
# 1. […] Concentration of the supernatant was determined by LC-UV or LC-MS/MS
smiles,measurement,value
CC(=O)c1c(O)c(C)c(O)c(Cc2c(O)c3c(c(C(=O)/C=C/c4ccccc4)c2O)OC(C)(C)C=C3)c1O,solubility,250 µM

# Source: PubChem BioAssay AID504780 (National Center for Advancing Translational Sciences (NCATS), 2011)
